Source: US20140106387A1, “METHOD FOR CONTROLLING NAD(P)/NAD(P)H RATIO BY OXIDOREDUCTASE” (MD BIOALPHA CO., LTD., priority 2006, published 2014)

Tests used:
eNOS = assay: phosphorylation of endothelial nitric oxide synthase (eNOS) in HUVEC; assay type: cell-based, human; conditions: 10 μM
Protocol: It is well-known that activation of AMPK activates NRF-1 and facilitates mitochondrial biogenesis. In addition, NO/cGMP activates PGC-1α and NRF-1 to facilitate mitochondrial biogenesis. In order to ascertain whether an NQO1 activator, which activates AMPK, is involved in production of nitric oxide (NO), a degree of phosphorylation, leading to an increase in activity of endothelial nitric oxide synthase (eNOS), was determined. […] The culture medium was replaced with a serum free EBM2 medium, and cells were treated with pyrano-1,2-naphthoquinone (10 μM) for a predetermined time. Phosphorylated eNOS was observed using Anti-[…] eNOS.

[1] = body weight, dietary intake, fat and tissue histology in C57BL/6 DIO mice; assay type: in vivo, mouse
Protocol: The removed tissues were cut into a proper size, fixed in 10% formalin, washed with water, and embedded in paraffin to prepare blocks, according to a conventional method. The thus-prepared blocks were sectioned into a 4 μm thickness and subjected to hematoxylin and eosin (H&E) staining for observation of general changes.
For observation of cellular microstructures, the removed tissues were sliced into a size of 1 mm^3, pre-fixed in 2.5% glutaraldehyde (0.1M PBS, pH 7.4, 4° C.) for 2 to 4 hours, washed, and post-fixed in a 1% osmium tetroxide solution for 2 hours. Then, according to a conventional method, the tissues were dehydrated with serial concentrations of ethanol and the solvent was replaced with propylene oxide. The tissues were embedded in an epoxy resin mixture, and the embedded tissues were subjected to thermal polymerization to prepare blocks. The thus-prepared blocks were sectioned into a thickness of 0.5 to 1 μm using a ultramicrotome and stained with toludine blue. Observation sites were selected under a light microscope and the tissues were ultrasectioned to a thickness of 60 to 70 nm. The ultrasectioned specimens were subjected to dual staining of uranyl acetate and lead citrate and were observed under a transmission electron microscope (H-600, Hitachi, Japan) at an accelerating voltage of 75 kV.
Cryosectioned tissues were sectioned into a thickness of 5 μm, dried in air for 1 hour and reacted in a filtered 0.5% oil red 0 solution for 20 min. The tissue sections were washed with tap water, subjected to double staining with Gill hematoxylin for 20 to 30 sec, water-washed, and observed.
Adipose tissues were sectioned into a thickness of 3 μm, deparaffinized, exposed to antigens in a citrate buffer under high pressure for 4 min and washed. The mixture was reacted in a 3% hydrogen peroxide solution for 10 min, and the reaction product was washed three times with a TBST solution for 3 min. The product was reacted with primary antibodies (guinea pig, anti-perilipin) against 200-fold diluted perilipin for 1 hour and washed with a TBST solution. Secondary antibodies (donkey anti-guinea pig, cy3-conjugated) were added and reacted with the product for 30 min. The reaction product was washed three times with a TBST solution for 3 min, mounted with Fluormount G and then observed under a fluorescence microscope.
Animals were continuously fed high-fat diet pellets for 3 to 4 weeks, thereby establishing DIO mice. Mice were raised in a breeding room with a 12 h/12 h light/dark D) cycle. Animals were divided into three groups, i.e., a group with administration of physiological saline (n=3), a group with administration of a vehicle (n=5) and a group with administration of 50 mg/kg of a candidate compound (n=7). Samples were orally administered to animals every day. On Days 7, 28 and 56, each tissue was removed, frozen in liquid nitrogen, and stored at […] for short and long periods of time.
All experimental animal procedures were performed according to a guideline of Institutional Animal Care and Use Committee, Chungnam National University School of Medicine. OLETF rats were purchased from Otsuka Research Institute. Male ob/ob and C57BL/6 mice were purchased from Jackson Laboratory. Animals were housed in a breeding room maintained at a constant temperature of […] and a 12 h/12 h light/dark (L/D) cycle. 4-week-old C57BL/6 male mice were fed ad libitum high fat diet (HFD, 24% (w/w) and 45% calories as fat, Research Diets Inc., New Brunswick, N.J. 08901, US) for 7 weeks. Mouse groups were divided into an untreated group, a vehicle-treated group (calcium silicate), a pair-fed group and a candidate compound-treated group (calcium silicate-coated […] nanoparticles). Body weight and dietary intake of animals were daily measured. Upon completion of experiments, some mice of each group were anesthetized and received MRI examinations. The remaining mice of the groups were anatomized and tissue weight thereof was measured. […]

ACC, CPT, HAD = assay: enzyme assays, malonyl-CoA content and fatty acid oxidation in DIO mice; assay type: in vivo, mouse
Protocol: For Enzyme assays, cytoplasm was extracted from mouse tissues. Dicoumarol-sensitive NQO1 activity was determined by a conventional method known in the art: This method is based on an absorbance decrease at 600 nm due to bioreduction of DCPIP. Total AMPK activity was determined with a known method using synthetic “SAMS” peptides and [γ-^32P] ATP. ACC activity was determined by quantifying fixation of ^14CO2 to the acid-stable product in the presence/absence of citrate (2 mM) as an allosteric activator of ACC. CPT (carnitine palmitoyl transferase) activity was measured in L6 myoblasts and soleus muscle by a known method. HAD (3-hydroxyacyl-CoA dehydrogenase) activity was determined in L6 myoblasts and soleus muscle by monitoring conversion of acetoacetyl-CoA into L-3-hydroxybutyryl CoA and the concomitant oxidation of NADH into NAD^+. The reaction was monitored at 340 nm by a known method.
[^14C]palmitoyl-CoA (Perkin Elmer) oxidation was determined in L6 myoblasts and soleus muscle by a known method using labeled CO2 and 0.2 mL of benzethonium chloride solution.
Contents of Malonyl-CoA were determined by a known method, e.g. HPLC. Acyl-CoA esters were separated by HPLC using 0.2 M ammonium acetate-containing acetonitrile/water (1.75:98.25). Samples were washed with 20 min, and subjected to 100 min linear gradient elution from acetonitrile/water (10:90) containing 0.2 M ammonium acetate.
That is, such facts mean that chronic treatment of βL can accelerate mitochondrial oxidative phosphorylation and enhance adaptive mitochondrial biogenesis. Therefore, βL can be used as a therapeutic agent for metabolic diseases.

HEK293 cells = assay: calcium influx in NQO1-deficient HEK293 cells; assay type: cell-based, human
Protocol: Cells were grown on a coverslip in a culture medium for 24 hours, maintained in an RPMI 1640 serum-free medium for 1 hour, and pretreated with a calcium indicator Fluo-4 (5 μM) for 30 min. After pretreatment, the coverslip was mounted on a slide glass. […] Using an LSM Image Browser program (Carl Zeiss), 300 images taken for 10 min every 2 seconds were sorted and ordered in a time sequence and plotted on a graph.

[2] = muscle of DIO mice vs control group

CC1(C)CCC2=C(O1)c1ccccc1C(=O)C2=O [βL, 2,2-Dimethyl-3,4-dihydro-2H-benzo[h]chromene-5,6-dione]
time of maximum increase of phosphorylation of eNOS (eNOS): 30 min
phosphorylation of eNOS 2 hours later (eNOS; 2 hours): not observed
EM of liver tissues ([1]; C57BL/6 DIO mice, 56 days): remarkably decreased fat vacuoles and glycogen stores
accumulated fat in the liver (oil red O staining), diminished compared to control ([1]; C57BL/6 DIO mice, 56 days): ≥ 90%
visceral fat and body weight ([1]; C57BL/6 DIO mice, 56 days): conspicuous decreases
amounts of subcutaneous, mesenteric, perirenal and gonadal fats ([1]; C57BL/6 DIO, first four weeks of 56 days): gradually decreased
number of type 1 myofibers in the soleus muscle ([1]; DIO mice): increased
size of adipocytes, brown adipose tissues (H&E staining, EM) ([1]; Day 56, 50 mg/kg daily oral): remarkably decreased
size of adipocytes, gonadal adipose tissues (perilipin staining) ([1]; Day 56, 50 mg/kg daily oral): remarkably decreased
body weight ([1]; obese mice on high-fat diet, 50 mg/kg daily oral, 56 days): continuous weight loss for 56 days
dietary intake ([1]; obese mice, 50 mg/kg daily oral, 56 days): decreases in dietary intake for the first two weeks
muscle mitochondria (EM) ([1]; βL-treated DIO mice and ob/ob mice): normal morphology and increased numbers of mitochondria
14C-palmitoyl CoA β-oxidation (ACC, CPT, HAD; [2]): significantly increased
CPT activity (ACC, CPT, HAD; [2]): significantly increased
HAD activity (ACC, CPT, HAD; [2]): significantly increased
ACC activity (ACC, CPT, HAD; βL-treated DIO mice): decreased
malonyl CoA level (ACC, CPT, HAD; βL-treated DIO mice): decreased
calcium peak (HEK293 cells): not appeared
